Measurements reported in patent US7927799B2, “Inhibitors of PGHS-2Transactivator activity” (Ordway Research Institute, priority 2005, dated 2011).

Legend:
PGE2 production = PGE2 production in cells by ELISA; type: cell-based, human; details: DU145 and UM-SCC-22B cells, 12 h; PMA 100 nM, NS398, indomethacin, PD98059 each 10 μM
Description: Cells were plated in 48-well culture dishes and treated or without PMA (100 nM), NS398 (10 μM), indomethacin (10 μM) or PD98059 (10 μM) for 12 h. Cells were transferred to 200 μl PBS for the last 30 min. Samples were then collected and subjected to quantitative analysis of PGE2 by ELISA. The results are shown as mean±SD of results from three representative studies.

human PGHS-2 promoter = test: PGHS-2 promoter (-831/+123) luciferase reporter assay; type: cell-based; details: UM-SCC-22B cells, 12 h; PMA 100 nM, PD98059 10 μM, PDTC 100 μM, SB203580 10 μM
Description: UM-SCC-22B cells were transfected with the −831/+123 PGHS-2 promoter constructs fused to a luciferase reporter or the luciferase reporter with the SV 40 promoter (pGL2 promoter).
Aliquots of cells were treated with PMA (100 mM), PD98059 (10 μM), PDTC (100 μM), or SB203580 (10 μM) for 12 h. Cultures were co-transfected with β-galactosidase reporter plasmids, and luciferase activity, corrected for β-galactosidase activity, measured and expressed as the mean±SD of triplicate culture determinations from three experiments.
To assess PGHS-2 promoter activity in UM-SCC-22B cells, the proximal −831/+123 base pairs of the human PGHS-2 promoter were fused to a luciferase reporter (pGHS-2 LUC) (Cao et al., 1999). This PGHS-2 reporter or SV40 LUC (pGL2 promoter) were transfected into near confluent UM-SCC-22B tumor cells.

[1] = system: PGHS-2 protein expression; test: PGHS-2 protein by immunoblotting of nuclear/cytosol proteins; type: cell-based, human; details: 12 h, PMA 100 nM; for PGHS-2 protein / PGHS-2 expression: confluent UM-SCC-22B cells, PD98059 10 μM, SB203580 10 μM, PDTC 100 μM
Description: A: Effects of PKC activation or signaling pathway inhibitors on PGHS-2 expression. UM-SCC 22B cells were allowed to grow to confluence in 10 cm culture dishes, and then received either control medium (lane 1) or medium containing PMA (lane 2, 100 nM), PD98059 (PD, lane 3, 10 μM), SB203580 (SB, lane 4, 10 μM) or PDTC (lane 5, 100 μM) for 16 h. Cell monolayers were harvested and 40 μg nuclear protein were subjected to immunoblotting with anti-human PGHS-2 (upper panel) or anti-pMAPK (pERK1/2, lower panel). […] Results shown are the means±SD from three similar experiments.
Fractionation of cells in a microfuge and preparation of nucleoproteins was by a previously reported method (Lin et al., 2002). Nuclear extracts were prepared by resuspension of the crude nuclear fraction in high salt buffer (420 mN NaCl, 20% glycerol) at 4° C. with rocking for 1 h. The supernatants were then collected after subsequent centrifugation at 4° C. and 13,000 rpm for 10 min.

MDM2 promoter = test: Chromatin immunoprecipitation (ChIP) of PGHS-2 binding to the MDM2 promoter; type: cell-based, human; details: 12 h, PDTC 100 μM, PD98059 10 μM
Description: (§1) A: ChIP was performed with PGHS-2 antibody, using UM-SCC-22B (22B) cells constitutively expressing PGHS-2, and in the absence (Con) or presence of PMA (100 nM), PDTC (100 μM) or PD98059 (PD, 10 μM) for 12 h. Input and immunoprecipitated (IP) DNA was amplified by using primers for MDM2, PGHS-2 promoter and PGHS-2 ORF, and the amplified DNAs were then separated by electrophoresis and scanned with the VersaDOC™ Imaging System.
(§2) In ChIP experiments in prostate cancer cells, using monoclonal anti-PGHS-2, we compared the amount of immunoprecipitable PGHS-2 promoter sequence with the amount of input DNA for each sample; a PGHS-2 ORF primer served as a negative control. […] PGHS-2 also bound to the promoter region of MDM2.
Chromatin immunoprecipitation was performed as described by Luo et al. (1998) and Braunstein et al. (1996). Aliquots of cells (6 ×10^6) in monolayers were treated with 1% formaldehyde for 15 min at room temperature to effect crosslinking. Monolayers were then washed twice with PBS. […] Cell lysates were sonicated to yield chromatin fragments of approximately 600 bp, as assessed by agarose gel electrophoresis. […] Relative levels of DNA were determined with QuantifyOne software (Bio-Rad Laboratories, Inc., Hercules, Calif.).

PGHS-2 promoter = test: Chromatin immunoprecipitation (ChIP) of PGHS-2 binding to the PGHS-2 promoter; type: cell-based, human; details: 12 h, PMA 100 nM, PDTC 100 μM, PD98059 10 μM
Description: as §1, §2
Chromatin immunoprecipitation was performed as described by Luo et al. (1998) and Braunstein et al. (1996). Aliquots of cells (6 ×10^6) in monolayers were treated with 1% formaldehyde for 15 min at room temperature to effect crosslinking. Monolayers were then washed twice with PBS. Extracts were prepared by scraping cells in 1 ml of buffer (150 mM NaCl, 1% NP-40, 0.5% DOC, 0.1% SDS, 50 mM Tris [pH 8.0], 5 mM EDTA) that contained the protease inhibitors leupeptin (10 µg/ml) and pepstatin A (10 µg/ml), phosphatase inhibitors (50 mM NaF and 0.2 mM sodium orthovanadate) and the deacetylase inhibitor, trichostatin A, 5 µM (Calbiochem, San Diego, Calif.). Cell lysates were sonicated to yield chromatin fragments of approximately 600 bp, as assessed by agarose gel electrophoresis. Immunoprecipitation was carried out with anti-p53 (Santa Cruz, Santa Cruz, Calif.), anti-phosphoSer392-p53 (Cell Signaling, Beverly, Mass.), or anti-acetylated p53 (Upstate Biotechnology, Lake Placid, N.Y.). For studies of the PGHS-2 promoter, anti-PGHS-2 (Cayman) was used. […] Relative levels of DNA were determined with QuantifyOne software (Bio-Rad Laboratories, Inc., Hercules, Calif.).

[2] = system: PGHS-2 / p300 association; test: Co-immunoprecipitation of nuclear PGHS-2 with p300; type: cell-based, human; details: UM-SCC-22B cells, PMA 100 nM, 12 h
Description: (§3) Confluent UM-SCC-22B (22B) cells were treated with PMA, 100 nM, or solvent alone for 12 h. Cell nuclei were prepared (Lin et al., 1999) and immunoprecipitated with antibody to PGHS-2. Immunoprecipitated proteins were separated by gel electrophoresis and immunoblotted with antibody to c-Fos, MDM2 or p300. Shown are representative immunoblots from 3 similar experiments. Co-localization of c-Fos with PGHS-2 is seen in nuclei of UM-SCC-22B cells.
(§4) The techniques used were those previously described by our laboratory (Lin et al., 1999). In brief, nucleoproteins were separated on discontinuous SDS-PAGE (9% gels) and then transferred by electroblotting to Immobilon membranes (Millipore, Bedford, Mass.). After blocking with 5% milk in Tris-buffered saline containing 0.1% Tween, the membranes were incubated with various antibodies overnight. Secondary antibodies were either goat anti-rabbit IgG (1:1000) or rabbit anti-mouse IgG (1:1000) (Dako, Carpenteria, Calif.), depending upon the origin of the primary antibody. Immunoreactive proteins were detected by chemiluminescence.

[3] = system: PGHS-2 / MDM2 association; test: Co-immunoprecipitation of nuclear PGHS-2 with MDM2; type: cell-based, human; details: UM-SCC-22B cells, PMA 100 nM, 12 h
Description: as §3, §4

[4] = system: PGHS-1 protein expression; test: PGHS-1 protein by immunoblotting; type: cell-based, human; details: PMA 100 nM, 12 h; cancer cell lines
Description: FIG. 2. Expression of PGHS-2 in ECV 304, DU145 and UM-SCC-22B (22B) cells A: Constitutive expression of PGHS-2 protein in ECV 304, DU145 and UM-SCC-22B cells. Cells were grown to confluence in 10 cm dishes. Monolayers were treated with or without PMA (100 nM) for 12 h; nuclear proteins were then harvested and subjected to immunoblotting with antihuman PGHS-2 (panel 1) or -PGHS-1 (panel 2).
as §4

[5] = system: PGHS-2 / c-Fos association; test: Co-immunoprecipitation of nuclear PGHS-2 with c-Fos; type: cell-based, human; details: UM-SCC-22B cells, PMA 100 nM, 12 h
Description: as §3, §4

PGHS-2 mRNA = PGHS-2 mRNA levels by RT-PCR; type: cell-based, human; details: PMA 100 nM, 8 h; ECV 304, DU145 and UM-SCC-22B cells
Description: B: PGHS-2 mRNA levels in ECV 304, DU145 and UM-SCC-22B cells. Confluent cells were treated with or without PMA (100 nM) for 8 h. Total RNA samples were harvested and subjected to RT-PCR using PGHS-2 or GAPDH primers (top and bottom panels, respectively).

Row | Structure (SMILES) | PGE2 production (PGE2 production) | PGHS-2 promoter activity (luciferase) (human PGHS-2 promoter) | PGHS-2 protein / PGHS-2 expression [1] | binding of PGHS-2 to the MDM2 promoter (MDM2 promoter) | binding of PGHS-2 to the PGHS-2 promoter (PGHS-2 promoter) | further results
1 | CS(=O)(=O)Nc1ccc([N+](=O)[O-])cc1OC1CCCCC1 [NS398] | decreased PGE2 production in cancer cells to basal levels |  |  |  |  | 
2 | COc1cccc(-c2cc(=O)c3ccccc3o2)c1N [PD98059] | decreased PGE2 production in cancer cells to basal levels | inhibited | decreased to very low levels | inhibited | inhibited | 
3 | S=C(S)N1CCCC1 [PDTC, pyrrolidine dithiocarbamate] |  | inhibited | minimally inhibited | inhibited | inhibited | 
4 | CCCCCCCCCCCCCC(=O)O[C@@H]1[C@@H](C)[C@@]2(O)[C@@H](C=C(CO)C[C@]3(O)C(=O)C(C)=C[C@@H]23)[C@@H]2C(C)(C)[C@]12OC(C)=O [PMA, phorbol-12-myristate-13-acetate] | did not significantly increase | only negligibly increased | increase |  | minimal increases | nuclear association of PGHS-2 with p300 [2]: little increase; nuclear association of PGHS-2 with MDM2 [3]: little increase; abundance of PGHS-1 [4]: no effect; nuclear association of PGHS-2 with c-Fos [5]: marked increase; abundance of PGHS-2 mRNA (PGHS-2 mRNA): increased; cytosolic PGHS-2 [1]: increased; abundance of PGHS-2 protein in nuclei ([1]; ECV 304, DU145 and UM-SCC-22B cells): increased
5 | C[S+]([O-])c1ccc(-c2nc(-c3ccncc3)c(-c3ccc(F)cc3)[nH]2)cc1 (stereo not drawn) [SB203580] |  | inhibited | minimally inhibited |  |  | 
6 | COc1ccc2c(c1)c(CC(=O)O)c(C)n2C(=O)c1ccc(Cl)cc1 [indomethacin] | decreased PGE2 production in cancer cells to basal levels |  |  |  |  | 
